Reference: BindingDB's records for doi:10.1016/0960-894X(96)00231-4 (1996)

Legend:
[1] = Binding affinity at Dopamine D3 receptors in rat striatum by [3H]-spiperone displacement.
[2] = molecular target: D(2) dopamine receptor (Rattus norvegicus) (UniProt P61169); assay: Binding affinity at Dopamine D2 receptors in rat striatum by [3H]spiperone displacement.
[3] = Stimulation of mitogenesis in Dopamine receptor D3 transfected CHO p-5 cells

Chain of D(2) dopamine receptor (Rattus norvegicus) (P61169 whole entry, looked up): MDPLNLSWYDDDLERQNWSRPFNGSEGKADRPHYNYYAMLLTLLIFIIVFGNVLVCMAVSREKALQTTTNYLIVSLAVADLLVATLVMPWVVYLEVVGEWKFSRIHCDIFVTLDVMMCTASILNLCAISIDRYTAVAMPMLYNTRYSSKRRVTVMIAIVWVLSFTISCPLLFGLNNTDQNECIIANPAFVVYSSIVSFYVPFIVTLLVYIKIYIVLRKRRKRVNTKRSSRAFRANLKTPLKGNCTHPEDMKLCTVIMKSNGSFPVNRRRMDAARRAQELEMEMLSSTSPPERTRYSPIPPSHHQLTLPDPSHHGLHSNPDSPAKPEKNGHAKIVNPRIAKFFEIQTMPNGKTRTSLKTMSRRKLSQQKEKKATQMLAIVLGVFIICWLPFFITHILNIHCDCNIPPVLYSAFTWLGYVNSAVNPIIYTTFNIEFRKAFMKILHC

Question: Which results are given for `COc1c(C(=O)NCCN2CCN(c3ccccc3)CC2)ccc2ccccc12` [1-Methoxy-naphthalene-2-carboxylic acid [2-(4-phenyl-piperazin-1-yl)-ethyl]-amide]?
Answer: Ki [1]: 270 nM; Ki [2]: 7000 nM

Question: For `CCOc1c(C(=O)NCCN2CCN(c3ccccc3)CC2)cc(Br)c2ccccc12` [4-Bromo-1-ethoxy-naphthalene-2-carboxylic acid [2-(4-phenyl-piperazin-1-yl)-ethyl]-amide], which Ki [1] is on record?
Answer: Its Ki is 267 nM.

Question: And the Ki [2]?
Answer: The Ki was > 10000 nM.

Question: Which results are given for `O=C(NCCN1CCN(c2ccccc2)CC1)c1cc(Br)c2ccccc2c1O` [4-Bromo-1-hydroxy-naphthalene-2-carboxylic acid [2-(4-phenyl-piperazin-1-yl)-ethyl]-amide]?
Answer: Ki [1]: > 10000 nM; Ki [2]: > 10000 nM

Question: With `COc1c(C(=O)NCCN2CCN(c3cccc(C)c3)CC2)cc(Br)c2ccccc12` [4-Bromo-1-methoxy-naphthalene-2-carboxylic acid [2-(4-m-tolyl-piperazin-1-yl)-ethyl]-amide] as the molecule, how does the Ki [1] read?
Answer: The Ki was 339 nM.

Question: And the Ki [2]?
Answer: The Ki was 1210 nM.

Question: For `COc1c(C(=O)NCCN2CCN(c3ccccc3C)CC2)cc(Br)c2ccccc12` [4-Bromo-1-methoxy-naphthalene-2-carboxylic acid [2-(4-o-tolyl-piperazin-1-yl)-ethyl]-amide], which EC50 [3] is on record?
Answer: The EC50 was > 1000 nM.

Question: And the Ki [1]?
Answer: The Ki was 66 nM.

Question: What about the Ki [2] of the same molecule?
Answer: The Ki was 484 nM.

Question: For `COc1c(C(=O)NCCN2CCN(c3ccc(C)cc3)CC2)cc(Br)c2ccccc12` [4-Bromo-1-methoxy-naphthalene-2-carboxylic acid [2-(4-p-tolyl-piperazin-1-yl)-ethyl]-amide], which Ki [1] is on record?
Answer: Its Ki is 260 nM.

Question: And the Ki [2]?
Answer: The Ki was 996 nM.

Question: For `COc1c(C(=O)NCCN2CCN(c3ccccc3)CC2)cc(Br)c2ccccc12` [4-Bromo-1-methoxy-naphthalene-2-carboxylic acid [2-(4-phenyl-piperazin-1-yl)-ethyl]-amide], which Ki [1] is on record?
Answer: The Ki was 24 nM.

Question: And the Ki [2]?
Answer: The Ki was 1890 nM.

Question: For `COc1c(C(=O)NCCN2CCN(c3cccc(C)c3C)CC2)cc(Br)c2ccccc12` [4-Bromo-1-methoxy-naphthalene-2-carboxylic acid {2-[4-(2,3-dimethyl-phenyl)-piperazin-1-yl]-ethyl}-amide], which Ki [2] is on record?
Answer: Its Ki is 1170 nM.

Question: With `COc1c(C(=O)NCCN2CCN(c3ccccc3Cl)CC2)cc(Br)c2ccccc12` [4-Bromo-1-methoxy-naphthalene-2-carboxylic acid {2-[4-(2-chloro-phenyl)-piperazin-1-yl]-ethyl}-amide] as the molecule, how does the EC50 [3] read?
Answer: The EC50 was 83 nM.

Question: What about the Ki [1] of the same molecule?
Answer: The Ki was 39 nM.

Question: What about the Ki [2] of the same molecule?
Answer: Its Ki is 517 nM.

Question: Which results are given for `COc1ccccc1N1CCN(CCNC(=O)c2cc(Br)c3ccccc3c2OC)CC1` [4-Bromo-1-methoxy-naphthalene-2-carboxylic acid {2-[4-(2-methoxy-phenyl)-piperazin-1-yl]-ethyl}-amide]?
Answer: Ki [1]: 76 nM; Ki [2]: 303 nM

Question: What does the source list for `COc1c(C(=O)NCCN2CCN(c3ccccc3[N+](=O)[O-])CC2)cc(Br)c2ccccc12` [4-Bromo-1-methoxy-naphthalene-2-carboxylic acid {2-[4-(2-nitro-phenyl)-piperazin-1-yl]-ethyl}-amide]?
Answer: Ki [1]: 24 nM; Ki [2]: 151 nM

Question: For `COc1c(C(=O)NCCN2CCN(c3cccc(Cl)c3)CC2)cc(Br)c2ccccc12` [4-Bromo-1-methoxy-naphthalene-2-carboxylic acid {2-[4-(3-chloro-phenyl)-piperazin-1-yl]-ethyl}-amide], which EC50 [3] is on record?
Answer: Its EC50 is 28 nM.

Question: And the Ki [2]?
Answer: The Ki was 703 nM.

Question: Which Ki [1] does the source give for `COc1cccc(N2CCN(CCNC(=O)c3cc(Br)c4ccccc4c3OC)CC2)c1` [4-Bromo-1-methoxy-naphthalene-2-carboxylic acid {2-[4-(3-methoxy-phenyl)-piperazin-1-yl]-ethyl}-amide] here?
Answer: The Ki was 652 nM.

Question: What about the Ki [2] of the same molecule?
Answer: Its Ki is 1290 nM.

Question: For `COc1c(C(=O)NCCN2CCN(c3cccc([N+](=O)[O-])c3)CC2)cc(Br)c2ccccc12` [4-Bromo-1-methoxy-naphthalene-2-carboxylic acid {2-[4-(3-nitro-phenyl)-piperazin-1-yl]-ethyl}-amide], which Ki [1] is on record?
Answer: The Ki was 652 nM.

Question: And the Ki [2]?
Answer: The Ki was 1290 nM.

Question: With `COc1c(C(=O)NCCN2CCN(c3ccc(Cl)cc3)CC2)cc(Br)c2ccccc12` [4-Bromo-1-methoxy-naphthalene-2-carboxylic acid {2-[4-(4-chloro-phenyl)-piperazin-1-yl]-ethyl}-amide] as the molecule, how does the Ki [1] read?
Answer: Its Ki is 132 nM.

Question: Which Ki [1] does the source give for `COc1ccc(N2CCN(CCNC(=O)c3cc(Br)c4ccccc4c3OC)CC2)cc1` [4-Bromo-1-methoxy-naphthalene-2-carboxylic acid {2-[4-(4-methoxy-phenyl)-piperazin-1-yl]-ethyl}-amide] here?
Answer: The Ki was 731 nM.

Question: What about the Ki [2] of the same molecule?
Answer: Its Ki is 5690 nM.

Question: Which Ki [1] does the source give for `COc1c(C(=O)NCCN2CCN(c3ccc([N+](=O)[O-])cc3)CC2)cc(Br)c2ccccc12` [4-Bromo-1-methoxy-naphthalene-2-carboxylic acid {2-[4-(4-nitro-phenyl)-piperazin-1-yl]-ethyl}-amide] here?
Answer: Its Ki is 731 nM.

Question: What about the Ki [2] of the same molecule?
Answer: Its Ki is 5690 nM.

Question: What does the source list for `O=C(NCCN1CCN(c2ccccc2)CC1)c1cc(Br)c2ccccc2c1` [4-Bromo-naphthalene-2-carboxylic acid [2-(4-phenyl-piperazin-1-yl)-ethyl]-amide]?
Answer: Ki [1]: > 10000 nM; Ki [2]: > 10000 nM

Question: Which Ki [1] does the source give for `COc1c(C(=O)NCCN2CCN(c3ccccc3)CC2)cc(Cl)c2ccccc12` [4-Chloro-1-methoxy-naphthalene-2-carboxylic acid [2-(4-phenyl-piperazin-1-yl)-ethyl]-amide] here?
Answer: Its Ki is 55 nM.

Question: What about the Ki [2] of the same molecule?
Answer: Its Ki is 2530 nM.

Question: For `COc1c(C(=O)NCCN2CCN(c3ccccc3)CC2)cc(C#N)c2ccccc12` [4-Cyano-1-methoxy-naphthalene-2-carboxylic acid [2-(4-phenyl-piperazin-1-yl)-ethyl]-amide], which Ki [1] is on record?
Answer: The Ki was 131 nM.

Question: What about the Ki [2] of the same molecule?
Answer: The Ki was 71 nM.
